# Where “and” joins values, the source holds several entries; their conditions need not be identical. Equal values may be shown once. Toxic doses and inconclusive results are not listed.
# Tested on: P388 leukemia ip, CD2F1 mice, survival T/C
# Experiment: NCI In Vivo Anticancer Drug Screen. Data for tumor model P388 Leukemia (intraperitoneal) in CD2F1 (CDF1) mice
# Conditions: endpoint: median survival time, higher = longer survival
# In short: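 Mice carrying the transplanted tumor received test compound or vehicle. Survival was recorded in each group, and the value is the treated-group measurement divided by that of the vehicle-treated control group.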
# [1] = dose: 6.25 mg/kg/injection, schedule: Q01DX005 (ip), vehicle: Klucel (hydroxypropylcellulose) (HPC)
# [2] = dose: 12.5 mg/kg/injection, schedule: Q01DX005 (ip), vehicle: Klucel (hydroxypropylcellulose) (HPC)
# [3] = dose: 25.0 mg/kg/injection, schedule: Q01DX009 (ip), vehicle: saline with Tween-80
# [4] = dose: 50.0 mg/kg/injection, schedule: Q01DX009 (ip), vehicle: saline with Tween-80
# [5] = dose: 100.0 mg/kg/injection, schedule: Q01DX009 (ip), vehicle: saline with Tween-80
# [6] = dose: 12.5 mg/kg/injection, schedule: Q01DX009 (ip), vehicle: saline with Tween-80
# [7] = dose: 50.0 mg/kg/injection, schedule: Q01DX005 (ip), vehicle: Klucel (hydroxypropylcellulose) (HPC)
# [8] = dose: 100.0 mg/kg/injection, schedule: Q01DX005 (ip), vehicle: Klucel (hydroxypropylcellulose) (HPC)
# [9] = dose: 200.0 mg/kg/injection, schedule: Q01DX005 (ip), vehicle: Klucel (hydroxypropylcellulose) (HPC)
# [10] = dose: 50.0 mg/kg/injection, schedule: Q01DX009 (ip), vehicle: saline
# [11] = dose: 100.0 mg/kg/injection, schedule: Q01DX009 (ip), vehicle: saline
# [12] = dose: 200.0 mg/kg/injection, schedule: Q01DX009 (ip), vehicle: saline
# [13] = dose: 50.0 mg/kg/injection, schedule: Q01DX009 (ip), vehicle: Klucel (hydroxypropylcellulose) (HPC)
# [14] = dose: 60.0 mg/kg/injection, schedule: Q01DX005 (ip), vehicle: saline with Tween-80
# [15] = dose: 120.0 mg/kg/injection, schedule: Q01DX005 (ip), vehicle: saline with Tween-80
# [16] = dose: 200.0 mg/kg/injection, schedule: Q01DX009 (ip), vehicle: saline with Tween-80
smiles,measurement,setting,value
COc1cc2c(c(OC)c1OC)-c1ccc(N)c(=O)cc1[C@@H](NC(C)=O)CC2,T/C,"dose: 0.5 mg/kg/injection, schedule: Q01DX010 (ip), vehicle: saline",109 % of control
same,T/C,"dose: 1.0 mg/kg/injection, schedule: Q01DX010 (ip), vehicle: saline",118 % of control
same,T/C,"dose: 3.12 mg/kg/injection, schedule: Q01DX009 (ip), vehicle: Klucel (hydroxypropylcellulose) (HPC)",86 % of control
same,T/C,"dose: 6.25 mg/kg/injection, schedule: Q01DX009 (ip), vehicle: Klucel (hydroxypropylcellulose) (HPC)",108 % of control
COc1cc(/C=C/C(=O)C(CN(C)C)CN(C)C)cc(OC)c1OC,T/C,[1],100 % of control
same,T/C,[2],103 % of control
CCN=NNc1ccc(C)cc1,T/C,[3],110 % of control
C[N+]1(Cc2ccccc2)CCCC(O)C1 (configuration not stated),T/C,"dose: 7.5 mg/kg/injection, schedule: Q01DX005 (ip), vehicle: saline with Tween-80",101 % of control
same,T/C,"dose: 15.0 mg/kg/injection, schedule: Q01DX005 (ip), vehicle: saline with Tween-80",93 % of control
same,T/C,"dose: 30.0 mg/kg/injection, schedule: Q01DX005 (ip), vehicle: saline with Tween-80",99 % of control
Cc1c2cc[n+](CCCCCCCC[n+]3ccc4c(C)c5[nH]c6ccccc6c5cc4c3C)c(C)c2cc2c1[nH]c1ccccc12,T/C,"dose: 0.78 mg/kg/injection, schedule: Q04DX003 (ip), vehicle: distilled water + Tween-80",106 % of control
same,T/C,"dose: 1.56 mg/kg/injection, schedule: Q04DX003 (ip), vehicle: distilled water + Tween-80",106 % of control
same,T/C,"dose: 3.13 mg/kg/injection, schedule: Q04DX003 (ip), vehicle: distilled water + Tween-80",109 % of control
same,T/C,"dose: 6.25 mg/kg/injection, schedule: Q04DX003 (ip), vehicle: distilled water + Tween-80",103 % of control and 113 % of control
same,T/C,"dose: 12.5 mg/kg/injection, schedule: Q04DX003 (ip), vehicle: distilled water + Tween-80",105 % of control and 116 % of control and 122 % of control
same,T/C,"dose: 25.0 mg/kg/injection, schedule: Q04DX003 (ip), vehicle: distilled water + Tween-80",116 % of control and 121 % of control and 123 % of control
same,T/C,"dose: 100.0 mg/kg/injection, schedule: Q04DX003 (ip), vehicle: distilled water + Tween-80",121 % of control
CC(CN1CCCCC1)C(=O)c1ccc(-c2ccccc2)cc1 (configuration not stated),T/C,[3],100 % of control
same,T/C,[4],105 % of control
same,T/C,[5],100 % of control
O=c1oc2c3c4c(cc2c2c1CCC2)CCCN4CCC3,T/C,"dose: 100.0 mg/kg/injection, schedule: Q04DX003 (ip), vehicle: Klucel (hydroxypropylcellulose) (HPC)",102 % of control
same,T/C,"dose: 200.0 mg/kg/injection, schedule: Q04DX003 (ip), vehicle: Klucel (hydroxypropylcellulose) (HPC)",101 % of control
same,T/C,"dose: 400.0 mg/kg/injection, schedule: Q04DX003 (ip), vehicle: Klucel (hydroxypropylcellulose) (HPC)",100 % of control
ClC1CN2CCC1CC2 (configuration not stated),T/C,[6],91 % of control
same,T/C,[3],95 % of control
same,T/C,[4],100 % of control
O=C(NCCCC(CCCNC(=O)c1ccccc1)(C(=O)O)C(=O)O)c1ccccc1,T/C,[7],106 % of control
same,T/C,[8],109 % of control
same,T/C,[9],104 % of control
CNc1cccc(NC)c1,T/C,"dose: 12.5 mg/kg/injection, schedule: Q01DX009 (ip), vehicle: water",105 % of control
same,T/C,"dose: 25.0 mg/kg/injection, schedule: Q01DX009 (ip), vehicle: water",112 % of control
CC(O)(CO)C(C)(O)C(C)(O)c1cn(O)c(=N)c(C(=O)OCc2ccccc2)n1 (configuration not stated),T/C,"dose: 100.0 mg/kg/injection, schedule: Q04DX003 (ip), vehicle: saline",93 % of control
same,T/C,"dose: 200.0 mg/kg/injection, schedule: Q04DX003 (ip), vehicle: saline",102 % of control
C(=C\c1ccnnc1)/c1ccccc1,T/C,[10],97 % of control
same,T/C,[11],106 % of control
same,T/C,[12],101 % of control
O=C1NC(c2cccc3ccccc23)Nc2ccc(Cl)cc21 (configuration not stated),T/C,"dose: 12.5 mg/kg/injection, schedule: Q01DX009 (ip), vehicle: Klucel (hydroxypropylcellulose) (HPC)",113 % of control
same,T/C,"dose: 25.0 mg/kg/injection, schedule: Q01DX009 (ip), vehicle: Klucel (hydroxypropylcellulose) (HPC)",123 % of control
same,T/C,[13],123 % of control
C[C@H](CCC1=NC(C)(C)CO1)C1CCC2[C@@H]3C(O)C[C@@H]4CC(O)CC[C@]4(C)C3CC[C@@]21C (some centres not stated),T/C,[14],90 % of control
same,T/C,[15],87 % of control
CCN(CC)CCN1C(=O)CN=C(c2ccccn2)c2cc(Cl)ccc21,T/C,[4],100 % of control
same,T/C,[5],95 % of control
same,T/C,[16],100 % of control
COc1ccc(Cc2cc3c(cc2OCC(=O)N(C)C)OCO3)cc1,T/C,[7],103 % of control
same,T/C,[8],98 % of control
same,T/C,[9],96 % of control
CC1(C)OC(=O)C(Cc2c[nH]c3ccccc23)C(=O)O1,T/C,[4],108 % of control
same,T/C,[5],100 % of control
same,T/C,[16],94 % of control
Cc1cc(C)nc(NS(=O)(=O)c2ccc(NC(=O)c3ccncc3)cc2)n1,T/C,[7],95 % of control
same,T/C,[8],96 % of control
same,T/C,[9],91 % of control
COc1cc(/C=C/c2ccnnc2)cc(OC)c1OC,T/C,[10],97 % of control
same,T/C,[11],94 % of control
same,T/C,[12],87 % of control
COc1ccc(-c2ccc(OC)c(OC)c2OC)c(N)c1,T/C,"dose: 100.0 mg/kg/injection, schedule: Q04DX003 (ip), vehicle: saline with Tween-80",99 % of control and 110 % of control
same,T/C,"dose: 200.0 mg/kg/injection, schedule: Q04DX003 (ip), vehicle: saline with Tween-80",104 % of control and 110 % of control
same,T/C,"dose: 400.0 mg/kg/injection, schedule: Q04DX003 (ip), vehicle: saline with Tween-80",114 % of control and 115 % of control
CN1C2C=C(c3ccc(Cl)cc3)CC1CC2 (configuration not stated),T/C,[1],106 % of control
same,T/C,"dose: 6.25 mg/kg/injection, schedule: Q01DX005 (ip), vehicle: saline",103 % of control
same,T/C,[2],100 % of control
same,T/C,"dose: 12.5 mg/kg/injection, schedule: Q01DX005 (ip), vehicle: saline",114 % of control
same,T/C,"dose: 25.0 mg/kg/injection, schedule: Q01DX005 (ip), vehicle: Klucel (hydroxypropylcellulose) (HPC)",109 % of control
same,T/C,"dose: 25.0 mg/kg/injection, schedule: Q01DX005 (ip), vehicle: saline",100 % of control
CCCc1c(-n2[nH]c(=O)n(-c3ccccc3)c2=O)c(=O)n(C)c(=O)n1C,T/C,[13],110 % of control
same,T/C,"dose: 100.0 mg/kg/injection, schedule: Q01DX009 (ip), vehicle: Klucel (hydroxypropylcellulose) (HPC)",105 % of control
same,T/C,"dose: 200.0 mg/kg/injection, schedule: Q01DX009 (ip), vehicle: Klucel (hydroxypropylcellulose) (HPC)",95 % of control
Nc1nc2[nH]ccc2c(=O)[nH]1,T/C,[6],95 % of control
same,T/C,[3],94 % of control
same,T/C,[4],104 % of control
same,T/C,[5],113 % of control
N#CC(Cl)CNC(=O)Oc1ccccc1 (configuration not stated),T/C,[7],97 % of control
NC(=S)N/N=C/c1nccc2ccccc12,T/C,"dose: 9.4 mg/kg/injection, schedule: Q01DX009 (ip), vehicle: saline with Tween-80",153 % of control
same,T/C,"dose: 37.5 mg/kg/injection, schedule: Q01DX009 (ip), vehicle: saline",150 % of control
same,T/C,"dose: 75.0 mg/kg/injection, schedule: Q01DX009 (ip), vehicle: saline",150 % of control
same,T/C,[5],152 % of control
same,T/C,[16],98 % of control
CCC(C)SSc1ccccc1C(=O)Nc1ccc(Cl)cc1 (configuration not stated),T/C,[14],95 % of control
same,T/C,[15],97 % of control
same,T/C,"dose: 240.0 mg/kg/injection, schedule: Q01DX005 (ip), vehicle: saline with Tween-80",99 % of control
c1ccc2c(c1)Cc1c-2n[nH]c1-c1[nH]nc2c1Cc1ccccc1-2,T/C,"dose: 60.0 mg/kg/injection, schedule: Q01DX005 (ip), vehicle: Klucel (hydroxypropylcellulose) (HPC)",96 % of control
same,T/C,"dose: 120.0 mg/kg/injection, schedule: Q01DX005 (ip), vehicle: Klucel (hydroxypropylcellulose) (HPC)",102 % of control
same,T/C,"dose: 240.0 mg/kg/injection, schedule: Q01DX005 (ip), vehicle: Klucel (hydroxypropylcellulose) (HPC)",96 % of control
CCOC(=O)N1C2CCC1C(C)C(=O)C2 (configuration not stated),T/C,"dose: 50.0 mg/kg/injection, schedule: Q01DX005 (ip), vehicle: saline",96 % of control
same,T/C,"dose: 100.0 mg/kg/injection, schedule: Q01DX005 (ip), vehicle: saline",96 % of control and 104 % of control
same,T/C,"dose: 200.0 mg/kg/injection, schedule: Q01DX005 (ip), vehicle: saline",94 % of control
